What was measured:
Heart [1] = assay: Drug uptake in Sprague-Dawley rat heart at 11 MBq, ip after 10mins by gamma counting assay; assay type: ADME, organism-based; conditions: in vivo
Femur [2] = assay: Drug uptake in Sprague-Dawley rat femur at 11 MBq, ip after 5 mins by gamma counting assay; assay type: ADME, organism-based; conditions: in vivo
Kidney [3] = assay: Drug uptake in Sprague-Dawley rat kidney at 11 MBq, ip after 5 mins by gamma counting assay; assay type: ADME, organism-based; conditions: in vivo
[4] = Permeability across apical to basolateral side of mouse bEND.3 cells at 37 kBq/200 uL after 10 hrs by transwell assay relative to control; assay type: ADME
Thyroid gland [5] = assay: Drug uptake in Sprague-Dawley rat thyroid at 11 MBq, ip after 5 mins by gamma counting assay; assay type: ADME, organism-based; conditions: in vivo
Liver [6] = assay: Drug uptake in Sprague-Dawley rat liver at 11 MBq, ip after 5 mins by gamma counting assay; assay type: ADME, organism-based; conditions: in vivo
[7] = Stability of compound in Sprague-Dawley rat serum assessed as remaining parent compound at 5 mins by RP-HPLC analysis; assay type: ADME; conditions: read-out: Stability
Intestine [8] = assay: Drug uptake in Sprague-Dawley rat intestine at 11 MBq, ip after 10mins by gamma counting assay; assay type: ADME, organism-based; conditions: in vivo
Stomach [9] = assay: Drug uptake in Sprague-Dawley rat stomach at 11 MBq, ip after 10mins by gamma counting assay; assay type: ADME, organism-based; conditions: in vivo
Spleen [10] = assay: Drug uptake in Sprague-Dawley rat spleen at 11 MBq, ip after 10mins by gamma counting assay; assay type: ADME, organism-based; conditions: in vivo
Brain [11] = assay: Drug uptake in Sprague-Dawley rat brain at 11 MBq, ip after 5 mins by gamma counting assay; assay type: ADME, organism-based; conditions: in vivo
Brain [12] = assay: Drug uptake in Sprague-Dawley rat brain at 11 MBq, ip after 10mins by gamma counting assay; assay type: ADME, organism-based; conditions: in vivo
[13] = Stability of compound in saline at 11 kBq/uL up to 1 week at 4 degC by HPLC analysis; assay type: physicochemical; conditions: buffer, 168 h
Heart [14] = assay: Drug uptake in Sprague-Dawley rat heart at 11 MBq, ip after 5 mins by gamma counting assay; assay type: ADME, organism-based; conditions: in vivo
Lung [15] = assay: Drug uptake in Sprague-Dawley rat lung at 11 MBq, ip after 10mins by gamma counting assay; assay type: ADME, organism-based; conditions: in vivo
Kidney [16] = assay: Drug uptake in Sprague-Dawley rat kidney at 11 MBq, ip after 10mins by gamma counting assay; assay type: ADME, organism-based; conditions: in vivo
[17] = Octanol-PBS partition coefficient, log P of the compound at pH 7.4 by shake flask method; assay type: physicochemical
Muscle tissue [18] = assay: Drug uptake in Sprague-Dawley rat muscle at 11 MBq, ip after 10mins by gamma counting assay; assay type: ADME, organism-based; conditions: in vivo
Intestine [19] = assay: Drug uptake in Sprague-Dawley rat intestine at 11 MBq, ip after 5 mins by gamma counting assay; assay type: ADME, organism-based; conditions: in vivo
Liver [20] = assay: Drug uptake in Sprague-Dawley rat liver at 11 MBq, ip after 10mins by gamma counting assay; assay type: ADME, organism-based; conditions: in vivo
Muscle tissue [21] = assay: Drug uptake in Sprague-Dawley rat muscle at 11 MBq, ip after 5 mins by gamma counting assay; assay type: ADME, organism-based; conditions: in vivo
Rattus norvegicus [22] = assay: Analgesic activity in Wistar Han rat assessed as time required to show maximal effect at 44.42 mg/kg, ip administered as single dose by hot plate test; assay type: functional
Lung [23] = assay: Drug uptake in Sprague-Dawley rat lung at 11 MBq, ip after 5 mins by gamma counting assay; assay type: ADME, organism-based; conditions: in vivo
Stomach [24] = assay: Drug uptake in Sprague-Dawley rat stomach at 11 MBq, ip after 5 mins by gamma counting assay; assay type: ADME, organism-based; conditions: in vivo
Liver [25] = assay: Stability of compound in Sprague-Dawley rat liver homogenate assessed as remaining parent compound […] at 10 mins by RP-HPLC analysis; assay type: ADME; conditions: iv
Femur [26] = assay: Drug uptake in Sprague-Dawley rat femur at 11 MBq, ip after 10mins by gamma counting assay; assay type: ADME, organism-based; conditions: in vivo
Thyroid gland [27] = assay: Drug uptake in Sprague-Dawley rat thyroid at 11 MBq, ip after 10mins by gamma counting assay; assay type: ADME, organism-based; conditions: in vivo
Kidney [28] = assay: Stability of compound in Sprague-Dawley rat kidney homogenate assessed as remaining parent compound at 10 mins by RP-HPLC analysis; assay type: ADME, tissue-based; conditions: tissue homogenate
Spleen [29] = assay: Drug uptake in Sprague-Dawley rat spleen at 11 MBq, ip after 5 mins by gamma counting assay; assay type: ADME, organism-based; conditions: in vivo
Blood [30] = assay: Drug uptake in Sprague-Dawley rat blood at 11 MBq, ip after 5 mins by gamma counting assay; assay type: ADME, organism-based; conditions: in vivo
Blood [31] = assay: Drug uptake in Sprague-Dawley rat blood at 11 MBq, ip after 10mins by gamma counting assay; assay type: ADME, organism-based; conditions: in vivo
Rattus norvegicus [32] = assay: Analgesic activity in Wistar Han rat assessed as time required to show maximal effect at 56.47 mg/kg, ip administered as single dose by hot plate test; assay type: functional
Rattus norvegicus [33] = assay: Analgesic activity in Wistar Han rat assessed as time required to show maximal effect at 5 mg/kg, ip by hot plate test; assay type: functional

N=C(N)NCCC[C@H](NC(=O)[C@@H](N)Cc1ccc(O)c([125I])c1)C(N)=O
Drug uptake (Heart [1]): 0.32 % ID/g
Drug uptake (Femur [2]): 0.22 % ID/g
Drug uptake (Kidney [3]): 0.5 % ID/g
fold change (FC) [4]: 0.49
Drug uptake (Thyroid gland [5]): 2.7 % ID/g
Drug uptake (Liver [6]): 0.9 % ID/g
remaining at 5 min [7]: 72.5%
Drug uptake (Intestine [8]): 1.06 % ID/g
Drug uptake (Stomach [9]): 0.98 % ID/g
Drug uptake (Spleen [10]): 0.33 % ID/g
Drug uptake (Brain [11]): 0.03 % ID/g
Drug uptake (Brain [12]): 0.07 % ID/g
Stability [13]: Stable
Drug uptake (Heart [14]): 0.26 % ID/g
Drug uptake (Lung [15]): 0.35 % ID/g
Drug uptake (Kidney [16]): 0.57 % ID/g
logD [17]: -1.8
Drug uptake (Muscle tissue [18]): 0.26 % ID/g
Drug uptake (Intestine [19]): 1.6 % ID/g
Drug uptake (Liver [20]): 0.88 % ID/g
Drug uptake (Muscle tissue [21]): 0.28 % ID/g
Time (Rattus norvegicus [22]): 30 min
Drug uptake (Lung [23]): 0.5 % ID/g
Drug uptake (Stomach [24]): 0.48 % ID/g
Stability (Liver [25]): Unstable
Drug uptake (Femur [26]): 0.27 % ID/g
Drug uptake (Thyroid gland [27]): 0.7 % ID/g
Stability (Kidney [28]): Unstable
Drug uptake (Spleen [29]): 1.1 % ID/g
Drug uptake (Blood [30]): 0.5 % ID/g
Drug uptake (Blood [31]): 0.68 % ID/g

N=C(N)NCCC[C@H](NC(=O)[C@@H](N)Cc1cc([125I])c(O)c([125I])c1)C(N)=O
Time (Rattus norvegicus [32]): 30 min

N=C(N)NCCC[C@H](NC(=O)[C@@H](N)Cc1ccc(O)cc1)C(N)=O
Time (Rattus norvegicus [33]): 15 min

From ChEMBL document CHEMBL3817816, “Improvement of the pharmacological properties of amidated kyotorphin by means of iodination” (Medchemcomm, 2016)
